Assay results from ChEMBL document CHEMBL1201862, “PubChem BioAssay data set” (2004).
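Following 48 hours of exposure in 96-well plates, responses at five concentrations were used to interpolate endpoints linearly. Abbreviation: GI50, concentration required for 50% inhibition of growth.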 The source made the active and inactive calls. Cut-off read from the data, not from the text of the source: active = GI50 up to about 1.1 µM and inactive = higher.

Legend:
Assay in all cases: NCI tumour cell line growth inhibition, 48 h
786-0 = test system: 786-0
BT-549 = test system: BT-549
COLO 205 = test system: COLO 205
DU-145 = test system: DU-145
EKVX = test system: EKVX
Hs-578T = test system: Hs-578T
K562 = test system: K562
KM12 = test system: KM12
M14 = test system: M14
MDA-MB-231 = test system: MDA-MB-231
OVCAR-8 = test system: OVCAR-8
SF-268 = test system: SF-268
SK-MEL-28 = test system: SK-MEL-28
SK-MEL-2 = test system: SK-MEL-2
SN12C = test system: SN12C
SNB-19 = test system: SNB-19
SNB-75 = test system: SNB-75
TK-10 = test system: TK-10
HCC 2998 = test system: HCC 2998

Measured: GI50

c1ccc2cc(OCC3CO3)c(OCC3CO3)cc2c1 (stereo not drawn)
inactive: 786-0 1.54 µM | BT-549 1.45 µM | COLO 205 12.8 µM | DU-145 3.85 µM | EKVX 11.4 µM | Hs-578T 3.89 µM | K562 3.73 µM | KM12 5.7 µM | M14 1.64 µM | MDA-MB-231 14.5 µM | OVCAR-8 2.94 µM | SK-MEL-28 11.9 µM | SK-MEL-2 10.9 µM | SN12C 2.37 µM | SNB-19 5.3 µM | SNB-75 4.84 µM | TK-10 12.1 µM
active: SF-268 0.891 µM

CCCC(Sc1nc(N)nc2nc[nH]c12)C(=O)O (stereo not drawn)
inactive: 786-0 92.5 µM | BT-549 > 100 µM | COLO 205 > 100 µM | DU-145 57.9 µM | HCC 2998 34.3 µM | Hs-578T > 100 µM | K562 37.7 µM | KM12 > 100 µM | M14 53.2 µM | MDA-MB-231 > 100 µM | OVCAR-8 56.2 µM | SF-268 46.8 µM | SK-MEL-28 > 100 µM | SK-MEL-2 > 100 µM | SN12C > 100 µM | SNB-19 > 100 µM | SNB-75 > 100 µM | TK-10 26.6 µM

CC1(C)OCC(C2OC(OC(=O)c3ccc([N+](=O)[O-])cc3)C3OC(C)(C)OC23)O1 (stereo not drawn)
inactive: 786-0 51.8 µM | BT-549 > 100 µM | COLO 205 > 100 µM | DU-145 > 100 µM | EKVX 61.8 µM | HCC 2998 > 100 µM | K562 > 100 µM | KM12 > 100 µM | M14 > 100 µM | MDA-MB-231 > 100 µM | OVCAR-8 > 100 µM | SF-268 20.5 µM | SK-MEL-28 > 100 µM | SK-MEL-2 > 100 µM | SN12C > 100 µM | SNB-19 59 µM | SNB-75 16.6 µM | TK-10 > 100 µM

NCCCN(CCCCN(CCCN)Cc1ccccc1)Cc1ccccc1
inactive: 786-0 23.1 µM | BT-549 79.6 µM | COLO 205 32.4 µM | DU-145 42.2 µM | EKVX 21.2 µM | HCC 2998 10.8 µM | Hs-578T 13 µM | K562 54.2 µM | KM12 30.4 µM | M14 41.6 µM | MDA-MB-231 > 100 µM | OVCAR-8 49.5 µM | SF-268 14.3 µM | SK-MEL-28 > 100 µM | SN12C 16 µM | SNB-19 10.7 µM | SNB-75 4.57 µM | TK-10 > 100 µM

O=C1CCCC2=C1CC1=C(CCCC1=O)N2c1ccccc1C(=O)O
inactive: 786-0 > 100 µM | BT-549 > 100 µM | EKVX > 100 µM | HCC 2998 > 100 µM | Hs-578T > 100 µM | K562 > 100 µM | KM12 > 100 µM | M14 > 100 µM | OVCAR-8 > 100 µM | SF-268 > 100 µM | SK-MEL-28 > 100 µM | SN12C > 100 µM | SNB-19 > 100 µM | SNB-75 > 100 µM | TK-10 > 100 µM

Cc1ccc2nc(-c3ccc(NC(=O)c4ccc(N)cc4)c(S(=O)(=O)O)c3)sc2c1
inactive: 786-0 > 100 µM | BT-549 > 100 µM | COLO 205 > 100 µM | DU-145 > 100 µM | EKVX > 100 µM | HCC 2998 > 100 µM | Hs-578T > 100 µM | K562 > 100 µM | KM12 > 100 µM | M14 > 100 µM | MDA-MB-231 > 100 µM | OVCAR-8 > 100 µM | SF-268 > 100 µM | SK-MEL-28 > 100 µM | SN12C > 100 µM | SNB-19 > 100 µM | SNB-75 > 100 µM | TK-10 > 100 µM

CCCCc1c2c(c(C)c3c1C(=O)OC3)Oc1ccccc1O2
inactive: 786-0 1.5 µM | BT-549 6.46 µM | DU-145 2.51 µM | M14 1.22 µM | MDA-MB-231 2.57 µM | OVCAR-8 3.67 µM | SF-268 1.64 µM | SK-MEL-28 > 63.2 µM | SN12C 1.85 µM | SNB-19 3.95 µM | TK-10 2.29 µM
active: COLO 205 0.855 µM | HCC 2998 0.646 µM | Hs-578T 0.628 µM | K562 0.379 µM | KM12 0.815 µM | SK-MEL-2 0.541 µM | SNB-75 0.562 µM

O=c1c(O)c(-c2cc(O)c(O)c(O)c2)oc2cc(O)cc(O)c12 [MYRICETIN]
inactive: 786-0 20.1 µM | BT-549 32.6 µM | COLO 205 65.9 µM | DU-145 > 100 µM | Hs-578T 40.9 µM | K562 35.6 µM | KM12 17.7 µM | M14 32.1 µM | MDA-MB-231 18.1 µM | OVCAR-8 17.9 µM | SF-268 44.2 µM | SK-MEL-28 > 100 µM | SK-MEL-2 > 100 µM | SNB-75 64.4 µM | TK-10 > 100 µM
